Data published in the supplement of paper PMC11451515.

Key:
Details in all cases: 48 h
P12-Ichikawa [1] = experiment: AUC of viability dose-response curve (% viability x log10 dose units); higher = less sensitive
Summary of the method: (§1)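 Over 48 h at 37°C, leukemia cells in 1536-well plates (500 or 1000 cells/well), adapted to each medium, received library compounds in DMSO at 11 threefold doses from 47 μM to 0.79 nM. CellTiter-Glo One luminescence, normalised per plate to DMSO and cell-free wells, was fitted by a four-parameter log-logistic function of log10 dose. The area under the curve was then integrated by trapezoidal rule, after scaling curves above full viability and removing those that failed quality control.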

NOMO1 [2] = experiment: as above
Summary of the method: as §1

SEM cells [3] = experiment: as above
Summary of the method: as §1

P12-Ichikawa [4] = experiment: cell viability relative to DMSO control; higher = less cytotoxic
Summary of the method: (§2)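 NOMO1 or SEM (500 cells/well) or P12-Ichikawa (1000 cells/well) leukemia cells were adapted for at least four passages in each medium. They were seeded in 1536-well plates (5 μl) and pin-dosed with library compounds in DMSO over an 11-point threefold series, 47 μM to 0.79 nM. CellTiter-Glo One luminescence was read after 48 h at 37°C. Viability is the per-plate percentage relative to DMSO wells, with cell-free wells as background.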

NOMO1 [5] = experiment: as above
Summary of the method: as §2

SEM cells [6] = experiment: as above
Summary of the method: as §2

COC1(C[S+]([O-])c2ccccc2)CCN(CCc2c[nH]c3ccc(F)cc23)CC1 (configuration not stated)
AUC of viability dose-response curve
Details | NOMO1 [2] | P12-Ichikawa [1] | SEM cells [3]
HPLM + 10% dialyzed FBS | 418 | 455 | 445
RPMI 5 mM glucose + 10% FBS | 469 | 408 | 471
RPMI 5 mM glucose + 10% dialyzed FBS | 460 | 451 | 456

cell viability [%]
Details | NOMO1 [5] | P12-Ichikawa [4] | SEM cells [6]
HPLM + 10% dialyzed FBS, 0.000781 µM | – | 112 | 119
HPLM + 10% dialyzed FBS, 0.00234 µM | – | 105 | 119
HPLM + 10% dialyzed FBS, 0.00702 µM | – | 112 | 122
HPLM + 10% dialyzed FBS, 0.0211 µM | – | 114 | 104
HPLM + 10% dialyzed FBS, 0.0632 µM | – | 113 | 123
HPLM + 10% dialyzed FBS, 0.19 µM | – | 115 | 111
HPLM + 10% dialyzed FBS, 0.569 µM | – | 109 | 109
HPLM + 10% dialyzed FBS, 1.71 µM | – | 96.6 | 100
HPLM + 10% dialyzed FBS, 5.12 µM | – | 102 | 122
HPLM + 10% dialyzed FBS, 15.4 µM | – | 99.6 | 110
HPLM + 10% dialyzed FBS, 46.1 µM | – | 93.2 | 93.5
RPMI 5 mM glucose + 10% FBS, 0.000781 µM | 107 | 117 | 120
RPMI 5 mM glucose + 10% FBS, 0.00234 µM | 113 | 116 | 109
RPMI 5 mM glucose + 10% FBS, 0.00702 µM | 106 | 133 | 117
RPMI 5 mM glucose + 10% FBS, 0.0211 µM | 106 | 148 | 106
RPMI 5 mM glucose + 10% FBS, 0.0632 µM | 117 | 140 | 119
RPMI 5 mM glucose + 10% FBS, 0.19 µM | 117 | 99.9 | 113
RPMI 5 mM glucose + 10% FBS, 0.569 µM | 116 | 78.9 | 116
RPMI 5 mM glucose + 10% FBS, 1.71 µM | 112 | 78.7 | 111
RPMI 5 mM glucose + 10% FBS, 5.12 µM | 113 | 115 | 117
RPMI 5 mM glucose + 10% FBS, 15.4 µM | 103 | 106 | 110
RPMI 5 mM glucose + 10% FBS, 46.1 µM | 96.2 | 97.6 | 95.6
RPMI 5 mM glucose + 10% dialyzed FBS, 0.000781 µM | 111 | 104 | –
RPMI 5 mM glucose + 10% dialyzed FBS, 0.00234 µM | 99.8 | 111 | –
RPMI 5 mM glucose + 10% dialyzed FBS, 0.00702 µM | 115 | 114 | –
RPMI 5 mM glucose + 10% dialyzed FBS, 0.0211 µM | 102 | 116 | –
RPMI 5 mM glucose + 10% dialyzed FBS, 0.0632 µM | 112 | 109 | –
RPMI 5 mM glucose + 10% dialyzed FBS, 0.19 µM | 111 | 105 | –
RPMI 5 mM glucose + 10% dialyzed FBS, 0.569 µM | 110 | 103 | –
RPMI 5 mM glucose + 10% dialyzed FBS, 1.71 µM | 99.8 | 98.4 | –
RPMI 5 mM glucose + 10% dialyzed FBS, 5.12 µM | 98.3 | 105 | –
RPMI 5 mM glucose + 10% dialyzed FBS, 15.4 µM | 103 | 99.9 | –
RPMI 5 mM glucose + 10% dialyzed FBS, 46.1 µM | 90.3 | 85.4 | –

Cc1cc(O)c2c(c1)C(=O)c1cc(O)cc(O)c1C2=O
AUC of viability dose-response curve
Details | NOMO1 [2] | P12-Ichikawa [1] | SEM cells [3]
HPLM + 10% dialyzed FBS | 462 | 467 | 457
RPMI 5 mM glucose + 10% FBS | 437 | 468 | 470
RPMI 5 mM glucose + 10% dialyzed FBS | 454 | 449 | 469

cell viability [%]
Details | NOMO1 [5] | P12-Ichikawa [4] | SEM cells [6]
HPLM + 10% dialyzed FBS, 0.000781 µM | 105 | 99.9 | 102
HPLM + 10% dialyzed FBS, 0.00234 µM | 102 | 107 | 108
HPLM + 10% dialyzed FBS, 0.00702 µM | 117 | 99.6 | 110
HPLM + 10% dialyzed FBS, 0.0211 µM | 104 | 104 | 115
HPLM + 10% dialyzed FBS, 0.0632 µM | 99.3 | 110 | 100
HPLM + 10% dialyzed FBS, 0.19 µM | 118 | 103 | 108
HPLM + 10% dialyzed FBS, 0.569 µM | 98.8 | 110 | 98.9
HPLM + 10% dialyzed FBS, 1.71 µM | 121 | 105 | 99.4
HPLM + 10% dialyzed FBS, 5.12 µM | 96.2 | 95.3 | 106
HPLM + 10% dialyzed FBS, 15.4 µM | 98.4 | 94.2 | 99.4
HPLM + 10% dialyzed FBS, 46.1 µM | 87.7 | 100 | 86.7
RPMI 5 mM glucose + 10% FBS, 0.000781 µM | 85.8 | 100 | 101
RPMI 5 mM glucose + 10% FBS, 0.00234 µM | 104 | 99.2 | 99.3
RPMI 5 mM glucose + 10% FBS, 0.00702 µM | 107 | 107 | 101
RPMI 5 mM glucose + 10% FBS, 0.0211 µM | 88.1 | 96.4 | 101
RPMI 5 mM glucose + 10% FBS, 0.0632 µM | 92.1 | 108 | 120
RPMI 5 mM glucose + 10% FBS, 0.19 µM | 88 | 104 | 128
RPMI 5 mM glucose + 10% FBS, 0.569 µM | 97.2 | 99.1 | 111
RPMI 5 mM glucose + 10% FBS, 1.71 µM | 85.3 | 103 | 102
RPMI 5 mM glucose + 10% FBS, 5.12 µM | 90.4 | 102 | 112
RPMI 5 mM glucose + 10% FBS, 15.4 µM | 85.9 | 90.6 | 120
RPMI 5 mM glucose + 10% FBS, 46.1 µM | 82.5 | 86.6 | 86.5
RPMI 5 mM glucose + 10% dialyzed FBS, 0.000781 µM | 90.5 | 91.5 | 92.7
RPMI 5 mM glucose + 10% dialyzed FBS, 0.00234 µM | 99 | 92.2 | 106
RPMI 5 mM glucose + 10% dialyzed FBS, 0.00702 µM | 109 | 88.8 | 114
RPMI 5 mM glucose + 10% dialyzed FBS, 0.0211 µM | 96.9 | 97.7 | 117
RPMI 5 mM glucose + 10% dialyzed FBS, 0.0632 µM | 110 | 99.8 | 112
RPMI 5 mM glucose + 10% dialyzed FBS, 0.19 µM | 94.6 | 97.1 | 106
RPMI 5 mM glucose + 10% dialyzed FBS, 0.569 µM | 92.1 | 96.4 | 106
RPMI 5 mM glucose + 10% dialyzed FBS, 1.71 µM | 92 | 90.8 | 106
RPMI 5 mM glucose + 10% dialyzed FBS, 5.12 µM | 95.7 | 97 | 123
RPMI 5 mM glucose + 10% dialyzed FBS, 15.4 µM | 90.3 | 94 | 103
RPMI 5 mM glucose + 10% dialyzed FBS, 46.1 µM | 87.4 | 84.8 | 103

CN(C)CCN(Cc1ccc(Cl)cc1)c1ccccn1.Cl
AUC of viability dose-response curve
Details | NOMO1 [2] | P12-Ichikawa [1] | SEM cells [3]
HPLM + 10% dialyzed FBS | 419 | 462 | 404
RPMI 5 mM glucose + 10% FBS | 430 | 410 | 456
RPMI 5 mM glucose + 10% dialyzed FBS | 418 | 391 | 452

cell viability [%]
Details | NOMO1 [5] | P12-Ichikawa [4] | SEM cells [6]
HPLM + 10% dialyzed FBS, 0.000781 µM | 84.4 | 89 | 79.9
HPLM + 10% dialyzed FBS, 0.00234 µM | 90.2 | 97.1 | 80.5
HPLM + 10% dialyzed FBS, 0.00702 µM | 89.4 | 95.9 | 80.9
HPLM + 10% dialyzed FBS, 0.0211 µM | 95.3 | 97.1 | 80.1
HPLM + 10% dialyzed FBS, 0.0632 µM | 91 | 96.9 | 79.3
HPLM + 10% dialyzed FBS, 0.19 µM | 78.5 | 94.9 | 84.8
HPLM + 10% dialyzed FBS, 0.569 µM | 98.2 | 97.5 | 89.9
HPLM + 10% dialyzed FBS, 1.71 µM | 63.8 | 101 | 94.4
HPLM + 10% dialyzed FBS, 5.12 µM | 93.9 | 95.2 | 86.6
HPLM + 10% dialyzed FBS, 15.4 µM | 91.1 | 96.4 | 88
HPLM + 10% dialyzed FBS, 46.1 µM | 90.3 | 101 | 86.9
RPMI 5 mM glucose + 10% FBS, 0.000781 µM | 85.2 | 80.3 | 90.8
RPMI 5 mM glucose + 10% FBS, 0.00234 µM | 90 | 80.4 | 90.8
RPMI 5 mM glucose + 10% FBS, 0.00702 µM | 92.7 | 85.4 | 92.8
RPMI 5 mM glucose + 10% FBS, 0.0211 µM | 92.6 | 95.1 | 84.4
RPMI 5 mM glucose + 10% FBS, 0.0632 µM | 84.1 | 80.5 | 95.7
RPMI 5 mM glucose + 10% FBS, 0.19 µM | 96.8 | 87.9 | 108
RPMI 5 mM glucose + 10% FBS, 0.569 µM | 99.2 | 90.4 | 102
RPMI 5 mM glucose + 10% FBS, 1.71 µM | 85.9 | 87.7 | 99.5
RPMI 5 mM glucose + 10% FBS, 5.12 µM | 92 | 90.4 | 98.8
RPMI 5 mM glucose + 10% FBS, 15.4 µM | 80 | 85.2 | 103
RPMI 5 mM glucose + 10% FBS, 46.1 µM | 90.5 | 82.4 | 84.7
RPMI 5 mM glucose + 10% dialyzed FBS, 0.000781 µM | 83.5 | 83 | 83.2
RPMI 5 mM glucose + 10% dialyzed FBS, 0.00234 µM | 95.1 | 82.3 | 92.1
RPMI 5 mM glucose + 10% dialyzed FBS, 0.00702 µM | 91.7 | 84.4 | 96.4
RPMI 5 mM glucose + 10% dialyzed FBS, 0.0211 µM | 96.1 | 87.9 | 100
RPMI 5 mM glucose + 10% dialyzed FBS, 0.0632 µM | 94.1 | 84.2 | 94
RPMI 5 mM glucose + 10% dialyzed FBS, 0.19 µM | 89.3 | 79.2 | 106
RPMI 5 mM glucose + 10% dialyzed FBS, 0.569 µM | 103 | 82.4 | 84
RPMI 5 mM glucose + 10% dialyzed FBS, 1.71 µM | 50.5 | 80.3 | 96.1
RPMI 5 mM glucose + 10% dialyzed FBS, 5.12 µM | 87.3 | 83.3 | 92.2
RPMI 5 mM glucose + 10% dialyzed FBS, 15.4 µM | 89.8 | 78.8 | 106
RPMI 5 mM glucose + 10% dialyzed FBS, 46.1 µM | 79.6 | 73.2 | 91.6
